This note sets out measurements from patent US10213415B2, “Compounds as opioid receptor modulators” (JANSSEN PHARMACEUTICA NV, priority 2004, dated 2019).

Each structure is given as a SMILES string.

For orientation: Ki means a measure of affinity in units of concentration, obtained from inhibition or displacement.

The target of one assay is T1, delta opioid receptor (Rattus norvegicus, UniProt P33533).
T1 construct: from tissue; host or cells: forebrain of male Wistar rats
The assay is described as follows: Rat Brain Delta Opioid Receptor Binding Assay-Version 1a ([3H]naltrindole). As to conditions: rat forebrain membranes, 0.1 nM [3H]naltrindole; margin of error 10-20%; read-out: r Ki δ Ver. 1a. As for the experimental part:
Male, Wistar rats (150-250 g, VAF, Charles River, Kingston, N.Y.) were killed by cervical dislocation, and their brains removed and placed immediately in ice-cold Tris HCl buffer (50 mM, pH 7.4). The forebrains were separated from the remainder of the brain by a coronal transection, beginning dorsally at the colliculi and passing ventrally through the midbrain-pontine junction. After dissection, the forebrains were homogenized in Tris buffer in a Teflon®-glass homogenizer. The homogenate was diluted to a concentration of 1 g of forebrain tissue per 80 mL Tris and centrifuged at 39,000×g for 10 min. The pellet was resuspended in the same volume of Tris buffer containing 5 mM MgCl2 with several brief pulses from a Polytron homogenizer. This particulate preparation was used for the delta opioid binding assay. Following incubation with 0.1 nM of the delta selective ligand [^3H]naltrindole at 25° C. for 2.5 h in a 96-well plate with total 1 mL, the plate contents were filtered through Wallac filtermat B sheets on a Tomtec 96-well harvester. The filters were rinsed three times with 2 mL of 10 mM HEPES (pH 7.4), and dried in a microwave oven. To each sample area, Betaplate Scint scintillation fluid (LKB) was added and the resulting radioactivity quantified on a LKB (Wallac) 1205 BetaPlate liquid scintillation counter. Kd and Ki values were calculated using the GraphPad PRISM data analysis program.

For a further assay, the system named is rats. In words: Visceral Hyperalgesia Testing (colorectal balloon distention following zymosan). The assay is classed as in vivo, rat. As to conditions: 30 mg/kg i.p., 5 rats, repeated distentions of 40 mmHg. As to the method:
Method: Rats were chronically instrumented with EMG electrodes in the muscles of the anterior abdominal wall. Distention of an intracolonic balloon, using a barostat apparatus, evoked increases in the EMG recordings that are related to the pressure. Control responses are compared with repeat stimulation 4 hours after zymosan is administered to the colon (FIG. 1).

T1 sequence (P33533 whole entry): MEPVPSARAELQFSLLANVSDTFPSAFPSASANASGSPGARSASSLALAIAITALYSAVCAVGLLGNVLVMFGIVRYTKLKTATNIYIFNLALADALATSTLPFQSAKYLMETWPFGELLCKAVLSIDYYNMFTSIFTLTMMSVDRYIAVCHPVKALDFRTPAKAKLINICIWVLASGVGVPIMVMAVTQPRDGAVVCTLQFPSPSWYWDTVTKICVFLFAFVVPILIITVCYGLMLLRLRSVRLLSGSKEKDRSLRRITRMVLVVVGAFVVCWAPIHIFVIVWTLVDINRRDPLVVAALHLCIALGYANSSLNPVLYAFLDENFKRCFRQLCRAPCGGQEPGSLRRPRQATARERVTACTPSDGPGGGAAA

Regarding `COC(=O)c1ccc(CN(C(=O)[C@@H](N)Cc2ccc(C(N)=O)cc2)[C@@H](C)c2nc(-c3ccccc3)c[nH]2)o1` [Cpd 303], the inhibitory constant (Ki) at delta opioid receptor turned out to be 24.5 nM. Still for that read-out and setting: under `Cc1cc(O)cc(C)c1C[C@H](N)C(=O)N(Cc1cccc(C(=O)O)c1)[C@@H](C)c1nc(-c2ccccc2)c[nH]1` [Cpd 48] stands 0.24 nM; under `COC(=O)c1ccc(CN(C(=O)[C@@H](N)Cc2c(C)cc(C(N)=O)cc2C)[C@@H](C)c2nc(-c3ccccc3)c[nH]2)o1` [Cpd 257], 14 nM.

Take `COc1ccc(CN(C(=O)[C@@H](N)Cc2c(C)cc(C(N)=O)cc2C)[C@@H](C)c2nc(-c3ccccc3)c[nH]2)cc1C(=O)O` [Cpd 18]: the “hyperalgesic response to colorectal balloon distention following zymosan” value in the assay with rats is “blocked the hyperalgesic response”.
